Read-outs that look alike come from different tables or passages of the source.
System: test plant species
Assay: Post-emergent herbicidal activity test (greenhouse, foliar spray, visual growth reduction)
Format: in vivo
Details: post-emergence, 336 h, 140 g ai/ha
How it was run: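 Greenhouse plants at first–second true leaf stage sprayed overhead at 187 L/ha with compound in acetone/water/isopropanol/DMSO/crop oil/X-77 carrier; controls received solvent blank. Injury rated visually after 14 d on a 0–100% scale versus untreated and control plants, converted to growth reduction.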

[1] = ALOMY: blackgrass (Alopecurus myosuroides), 14 days after application, read-out: Visual Growth Reduction (%) 14 Days After Application, ALOMY
[2] = AMARE: redroot pigweed (Amaranthus retroflexus), 14 days after application, read-out: Visual Growth Reduction (%) 14 Days After Application, AMARE
[3] = AVEFA: wild oat (Avena fatua), 14 days after application, read-out: Visual Growth Reduction (%) 14 Days After Application, AVEFA
[4] = CHEAL: lambsquarters (Chenopodium album), 14 days after application, read-out: Visual Growth Reduction (%) 14 Days After Application, CHEAL
[5] = CIRAR: canada thistle (Cirsium arvense), 14 days after application, read-out: Visual Growth Reduction (%) 14 Days After Application, CIRAR
[6] = CYPES: yellow nutsedge (Cyperus esculentus), 14 days after application, read-out: Visual Growth Reduction (%) 14 Days After Application, CYPES
[7] = DIGSA: crabgrass (Digitaria sanguinalis), 14 days after application, read-out: Visual Growth Reduction (%) 14 Days After Application, DIGSA
[8] = barnyardgrass (Echinochloa crus-galli), 14 Days After Application, read-out: Visual Growth Reduction (%) ECHCG
[9] = common chickweed (Stellaria media), 14 Days After Application, read-out: Visual Growth Reduction (%) STEME
[10] = giant foxtail (Setaria faberi), 14 Days After Application, read-out: Visual Growth Reduction (%) SETFA
[11] = ivy-leaf morning glory (Ipomoea hederacea), 14 Days After Application, read-out: Visual Growth Reduction (%) IPOHE
[12] = johnsongrass (Sorghum vulgare), 14 Days After Application, read-out: Visual Growth Reduction (%) SORVU
[13] = kochia (Bassia scoparia), 14 Days After Application, read-out: Visual Growth Reduction (%) KCHSC
[14] = rice (Oryza sativa), 14 Days After Application, read-out: Visual Growth Reduction (%) ORYSA
[15] = wheat, spring (Triticum aestivum), 14 Days After Application, read-out: Visual Growth Reduction (%) TRZAS
[16] = ECHCG: barnyardgrass (Echinochloa crus-galli), 14 days after application, read-out: Visual Growth Reduction (%) 14 Days After Application, ECHCG
[17] = IPOHE: ivy-leaf morning glory (Ipomoea hederacea), 14 days after application, read-out: Visual Growth Reduction (%) 14 Days After Application, IPOHE
[18] = KCHSC: kochia (Bassia scoparia), 14 days after application, read-out: Visual Growth Reduction (%) 14 Days After Application, KCHSC
[19] = ORYSA: rice (Oryza sativa), 14 days after application, read-out: Visual Growth Reduction (%) 14 Days After Application, ORYSA
[20] = SETFA: giant foxtail (Setaria faberi), 14 days after application, read-out: Visual Growth Reduction (%) 14 Days After Application, SETFA
[21] = SORVU: grain sorghum (Sorghum vulgare), 14 days after application, read-out: Visual Growth Reduction (%) 14 Days After Application, SORVU
[22] = STEME: common chickweed (Stellaria media), 14 days after application, read-out: Visual Growth Reduction (%) 14 Days After Application, STEME
[23] = TRZAS: wheat, spring (Triticum aestivum), 14 days after application, read-out: Visual Growth Reduction (%) 14 Days After Application, TRZAS

| Compound | pest or weed control at 140 g/ha [1] | pest or weed control at 140 g/ha [2] | pest or weed control at 140 g/ha [3] | pest or weed control at 140 g/ha [4] | pest or weed control at 140 g/ha [5] | pest or weed control at 140 g/ha [6] | pest or weed control at 140 g/ha [7] | pest or weed control at 140 g/ha [8] | pest or weed control at 140 g/ha [9] | pest or weed control at 140 g/ha [10] | pest or weed control at 140 g/ha [11] | pest or weed control at 140 g/ha [12] | pest or weed control at 140 g/ha [16] | pest or weed control at 140 g/ha [17] | pest or weed control at 140 g/ha [18] | pest or weed control at 140 g/ha [19] | pest or weed control at 140 g/ha [20] | pest or weed control at 140 g/ha [21] | pest or weed control at 140 g/ha [22] | pest or weed control at 140 g/ha [23] | other results |
| --- | --- | --- | --- | --- | --- | --- | --- | --- | --- | --- | --- | --- | --- | --- | --- | --- | --- | --- | --- | --- | --- |
| COC(=O)c1nc(-c2ccc(C(F)(F)F)cc2Cl)ccc1C(F)(F)F [F9, Methyl 6-(2-chloro-4-(trifluoromethyl)phenyl)-3-(trifluoromethyl) picolinate] | 0 to 29% | 30 to 44% | 0 to 29% | 0 to 29% | 0 to 29% | 0 to 29% | 0 to 29% | 0 to 29% | 0 to 29% | 0 to 29% | 45 to 59% | 0 to 29% | – | – | – | – | – | – | – | – | pest or weed control at 140 g/ha [13]: 0 to 29%; pest or weed control at 140 g/ha [14]: 0 to 29%; pest or weed control at 140 g/ha [15]: 0 to 29% |
| COC(=O)c1nc(-c2cc3c(cc2Cl)OC(F)(F)O3)c(Cl)cc1Cl [F154, Methyl 3,5-dichloro-6-(6-chloro-2,2-difluorobenzo[d] [1,3]dioxol-5-yl)picolinate] | 0 to 29% | 85 to 94% | 0 to 29% | 85 to 94% | 0 to 29% | 0 to 29% | 60 to 74% | – | – | – | – | – | 0 to 29% | 95 to 100% | 0 to 29% | 0 to 29% | 45 to 59% | 60 to 74% | 0 to 29% | 0 to 29% | – |
| O=C(O)c1nc(-c2cc3c(cc2Cl)OCO3)c(F)cc1Cl [F196, 3-Chloro-6-(6-chlorobenzo[d][1,3]dioxol-5-yl)-5-fluoropicolinic acid] | 0 to 29% | 75 to 84% | 0 to 29% | 85 to 94% | 0 to 29% | 0 to 29% | 0 to 29% | – | – | – | – | – | 0 to 29% | 95 to 100% | 60 to 74% | 0 to 29% | 0 to 29% | 45 to 59% | 0 to 29% | 0 to 29% | – |
| COC(=O)c1nc(-c2ccc3ccsc3c2F)ccc1Cl [F260, Methyl 3-chloro-6-(7-fluorobenzo[b]thiophen-6-yl) picolinate] | – | – | – | – | – | – | – | – | – | – | – | – | 0 to 29% | 0 to 29% | 0 to 29% | 0 to 29% | 0 to 29% | 0 to 29% | 0 to 29% | 0 to 29% | pest or weed control at 140 g/ha (blackgrass (Alopecurus myosuroides), 14 Days After Application, read-out: Visual Growth Reduction (%) ALOMY): 0 to 29%; pest or weed control at 140 g/ha (canada thistle (Cirsium arvense), 14 Days After Application, read-out: Visual Growth Reduction (%) CIRAR): 0 to 29%; pest or weed control at 140 g/ha (crabgrass (Digitaria sanguinalis), 14 Days After Application, read-out: Visual Growth Reduction (%) DIGSA): 0 to 29%; pest or weed control at 140 g/ha (lambsquarters (Chenopodium album), 14 Days After Application, read-out: Visual Growth Reduction (%) CHEAL): 0 to 29%; pest or weed control at 140 g/ha (redroot pigweed (Amaranthus retroflexus), 14 Days After Application, read-out: Visual Growth Reduction (%) AMARE): 0 to 29%; pest or weed control at 140 g/ha (wild oat (Avena fatua), 14 Days After Application, read-out: Visual Growth Reduction (%) AVEFA): 0 to 29%; pest or weed control at 140 g/ha (yellow nutsedge (Cyperus esculentus), 14 Days After Application, read-out: Visual Growth Reduction (%) CYPES): 0 to 29% |
| COC(=O)c1nc(-c2ccc(C(F)(F)F)cc2Cl)ccc1OC [F2, Methyl 6-(2-chloro-4-4-(trifluoromethyl)phenyl)-3-methoxypicolinate] | 0 to 29% | 60 to 74% | 0 to 29% | 0 to 29% | 0 to 29% | 0 to 29% | 85 to 94% | 60 to 74% | 0 to 29% | 30 to 44% | 85 to 94% | 95 to 100% | – | – | – | – | – | – | – | – | pest or weed control at 140 g/ha [13]: 0 to 29%; pest or weed control at 140 g/ha [14]: 0 to 29%; pest or weed control at 140 g/ha [15]: 45 to 59% |

From patent US20230017045A1, “PYRIDINE AND PYRIMIDINE CARBOXYLATE HERBICIDES AND METHODS OF USE THEREOF” (Dow AgroSciences LLC, priority 2017, published 2023)
